Entries after “also recorded” stand apart in the source; their conditions may differ.
Assays:
[1] = biological target: T1, SR Ca2+-ATPase in fast skeletal muscle SR vesicles (Cavia porcellus, UniProt H0UXI0); test: Calcium uptake assay (fluo-3), fast skeletal muscle (psoas m.) SR vesicles, which lack phospholamban; type: biochemical, guinea pig; conditions: for activation at 100 µM: compound 100 μM
T1 construct: Their hearts or the psoas muscles were excised; from tissue; host or cells: guinea pig psoas muscle, SR vesicles
T1 sequence (H0UXI0 entry or part of it limits assumed): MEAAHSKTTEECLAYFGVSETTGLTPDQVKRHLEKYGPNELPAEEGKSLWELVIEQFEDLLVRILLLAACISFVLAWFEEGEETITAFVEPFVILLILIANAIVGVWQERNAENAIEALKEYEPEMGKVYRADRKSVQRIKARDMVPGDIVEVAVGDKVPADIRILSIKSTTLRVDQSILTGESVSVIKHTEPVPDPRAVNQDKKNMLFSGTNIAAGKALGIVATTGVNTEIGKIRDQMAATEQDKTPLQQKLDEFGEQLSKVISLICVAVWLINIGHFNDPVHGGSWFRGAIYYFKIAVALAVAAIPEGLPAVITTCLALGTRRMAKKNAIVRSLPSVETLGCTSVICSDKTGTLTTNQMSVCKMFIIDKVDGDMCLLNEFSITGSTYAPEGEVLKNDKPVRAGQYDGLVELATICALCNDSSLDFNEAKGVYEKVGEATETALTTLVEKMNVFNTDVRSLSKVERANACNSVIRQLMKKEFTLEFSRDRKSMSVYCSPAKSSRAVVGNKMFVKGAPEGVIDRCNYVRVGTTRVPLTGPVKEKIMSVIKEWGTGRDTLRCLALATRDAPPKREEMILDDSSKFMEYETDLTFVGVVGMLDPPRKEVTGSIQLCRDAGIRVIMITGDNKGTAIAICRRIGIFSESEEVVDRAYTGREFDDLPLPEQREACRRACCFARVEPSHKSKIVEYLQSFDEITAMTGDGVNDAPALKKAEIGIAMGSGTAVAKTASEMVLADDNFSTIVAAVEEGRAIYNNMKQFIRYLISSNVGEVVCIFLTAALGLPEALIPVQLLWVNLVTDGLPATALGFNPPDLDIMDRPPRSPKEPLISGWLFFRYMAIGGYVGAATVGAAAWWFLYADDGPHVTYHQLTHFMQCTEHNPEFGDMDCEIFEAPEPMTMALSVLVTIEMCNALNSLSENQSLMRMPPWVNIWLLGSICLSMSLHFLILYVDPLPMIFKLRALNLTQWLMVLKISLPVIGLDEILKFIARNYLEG
Procedure: (§1) Preparation of the SR-vesicles
(§2) Guinea pigs (10-12) were decapited. Their hearts or the psoas muscles were excised, washed in ice-cold 0.9% NaCl and cut into pieces in a buffer containing 20 mM Tris-maleate, 0.3 M sucrose, pH 7.0. Thereafter tissue pieces were homogenized with Polytron and further with Potter (10 strokes). The homogenate was centrifugated at 1000 g for 15 min at 4° C. The supernatant was collected and the pellet was resuspended into 5 ml of the buffer (20 mM Tris-maleate, 0.3 M sucrose, pH 7.0) and recentrifugated at 1000 g for 10 min at 4° C. The obtained supernatant was combined with the earlier collected supernatant and centrifugated once again at 10 000 g for 20 min at 4° C. The final supernatant was filtered into a bottle equipped with a magnetic stirrer. KCl was added to the filtered supernatant to achieve the final concentration of 0.6 M (at 4° C.). The obtained solution was centrifugated at 100 000 g for 60 min at 4° C. The pellet was suspended in 5 ml of the buffer containing 20 mM Tris-maleate, 0.3 M sucrose, pH 7.0 and centrifugated at 100 000 g for 60 min at 4° C. The obtained pellet was suspended in 5 ml of buffer containing 20 mM Tris-maleate, 0.3 M sucrose, 0.1 M KCl, pH 7.0 and stored at -80° C. until use. The protein concentration was also measured in order to standardise the separately prepared vesicle preparations.
(§3) In the calcium uptake assay, the fluorescent indicator, fluo-3 was used to detect the decrease of the extravesicular Ca^2+ -concentration, when the SR Ca^2+ ATPase was transferring Ca^2+ from the extravesicular space into the SR-vesicles.
(§4) The SR-vesicles obtained above (50 μg protein/ml) were pre-incubated with or without the test compound at 37° C. for 5 min in the assay buffer containing 40 mM imidazole, 95 mM KCl, 5 mM NaN3, 5 mM MgCl2, 0.5 mM EGTA, 5 mM potassium oxalate, 2 μM ruthenium red, 5 μM fluo-3, pH 7.0. The free calcium was adjusted to 0.1 μM or to 0.04 μM by CaCl2. The reaction was initiated by adding ATP (5 mM). The final reaction volume was 1.5 ml. The fluorescence of reaction mixture was measured for 3 min by using the excitation and emission wavelengths of 510 nm and 530 nm, respectively.
(§5) The experiments were carried out at 0.1 μM and 0.04 μM free calcium concentrations, respectively.

[2] = biological target: T2, phospholamban inhibition of SR Ca2+-ATPase in cardiac muscle SR vesicles (Cavia porcellus, UniProt A0A286XLC6); test: Calcium uptake assay (fluo-3), cardiac SR vesicles; type: biochemical, guinea pig; conditions: for activation at 100 µM: compound 100 μM
T2 construct: Their hearts or the psoas muscles were excised; from tissue; host or cells: guinea pig heart (ventricular myocardium), SR vesicles
T2 sequence (A0A286XLC6 1-52): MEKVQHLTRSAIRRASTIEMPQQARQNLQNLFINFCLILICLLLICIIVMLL
Procedure: as §1, §2, §3, §4, §5

[3] = test system: isolated guinea-pig Langendorff heart; test: Development of stunned myocardium in isolated Langendorff heart (ischemia-reperfusion); conditions: 10 μM in perfusion buffer; three 8 min global ischemia periods each followed by reperfusion; FIG. 3B
Procedure: Guinea-pigs of either sex weighing 300-400 g were used in the study. After the guinea-pig was sacrificed by a blow on the skull and decapitated the heart was rapidly excised. The heart was then rinsed in oxygenated perfusion buffer. A cannula was inserted into the aorta and secured with a ligature. Retrograde perfusion began as soon as the heart was placed in a thermostatically controlled moist chamber of the Langendorff apparatus. Modified Tyrode solution (37° C.), equilibrated in a thermostatically controlled bulb oxygenator with carbogen (95% O2 and 5% CO2) was used as a perfusion buffer. The composition of the Tyrode solution was (in mM): NaCl 135; MgCl2 ×6H2 O 1; KCl 5; CaCl2 ×2H2 O 2; NaHCO3 15; Na2 HPO4 ×2H2 O 1; glucose 10; pH 7.3-7.4. The experiments were carried out under constant pressure condition (50 mmHg). After a short prestabilization (10 min) a latex balloon attached through the stainless-steel cannula to a pressure transducer was carefully placed into the left ventricle through the left pulmonary vein and the left atrium. The latex balloon, the cannula and the chamber of the pressure transducer were filled with ethylene glycol/water (1:1) mixture avoiding any air-bubble. The isovolumetric left ventricular pressure was recorded through the pressure transducer. […]

[4] = biological target: T3, PLB[1-36 a.a.] (36 amino acid N-terminal fragment of human phospholamban) (Homo sapiens, UniProt P26678); test: Circular dichroism (CD) spectroscopy, binding to cytosolic part of phospholamban; conditions: FIG. 2
T3 construct: the pSer16/pThr17 doubly phosphorylated peptide was compared
T3 sequence (P26678 1-36): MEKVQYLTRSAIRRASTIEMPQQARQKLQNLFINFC
Procedure: (§6) Both the 36 amino acid N-terminal fragment of human phospholamban (PLB [1-36 a.a.]) and the 36 amino acid N-terminal fragment of double phosphorylated human phospholamban (PLB [1-36 a.a.](Ser16PO3 -, Thr17PO3 -)) were obtained by peptide synthesis. The peptides were purified by reverse phase HPLC, analysed for homogenity by mass spectrometry and were found pure at 97%. The peptides were lyophilized and then resuspended in water at the final concentration of 0.1 mM, for CD analysis. The pH of both solutions was between 3 and 4 and was not further adjusted. Compound of Example 1c was solved in water at a final concentration of 0.1 mM. The pH was adjusted at 7.2 by adding 1 N NaOH.
(§7) Circular dichroism spectra were acquired at 24° C. on samples of 100 μl. The spectra were recorded on a Jasco J-720 spectropolarimeter using a 1 mm path-length quartz cuvette. The band width was 1 nm, the sensitivity 20 mdeg, the step resolution 0.5 nm, the response time 0.5 sec, and the scan speed 20 nm/min (from 250 to 190 nm). The spectra were expressed in [θ]×10^-3 ×degrees×cm^2 ×dmol^-1.

[5] = test system: PLB[1-36 a.a.](Ser16PO3-, Thr17PO3-); test: Circular dichroism (CD) spectroscopy, binding to double phosphorylated phospholamban fragment; set-up: species or system human; conditions: double phosphorylated peptide; FIG. 2
Procedure: as §6, §7

[6] = 0.05 h, 0.04 μM free calcium, read-out: The stimulation (%) of Ca2+ uptake, B (fast skeletal muscle vesicles)
[7] = 0.05 h, 0.1 μM free calcium, read-out: The stimulation (%) of Ca2+ uptake, A (ventricular myocardium vesicles)

## Cc1c(Cc2ccccc2)c(=O)oc2cc(OCc3noc(=O)[nH]3)cc(OCc3noc(=O)[nH]3)c12 [Example 3c, 3-Benzyl-5,7-bis[(2,5-dihydro-5-oxo-4H -1,2,4-oxadiazol-3-yl)-methoxy]-4-methyl-2H -1-benzopyran-2-one]
[1]; 0.05 h, compound 20 μM, 0.04 μM free calcium, read-out: The stimulation (%) of Ca2+ uptake, B (fast skeletal muscle vesicles)
  activation at 20 µM: 0%

## Cc1c(CCc2ccccc2)c(=O)oc2cc(OCc3nnn[nH]3)cc(OCc3nnn[nH]3)c12 [Example 7c, 5,7-Bis[(1H-tetrazol-5-yl)methoxy]-4-methyl-3-(2-phenylethyl)-2H-1benzopyran-2-one]
[1]; [6]
  activation at 100 µM: -17%
[2]; [7]
  activation at 100 µM: 5%

## Cc1c(Cc2ccccc2)c(=O)n(Cc2ccccc2)c2cc(OCC(=O)NO)cc(OCC(=O)NO)c12 [Example 23, 5,7-Bis(hydroxyaminocarbonylmethoxy)-1,3-dibenzyl-4-methyl-2(1H)-quinolinone]
[2]; 0.05 h, compound 5 μM, 0.1 μM free calcium, read-out: The stimulation (%) of Ca2+ uptake, A (ventricular myocardium vesicles)
  activation at 5 µM: 20%

## O=c1oc2cc(OCc3nnn[nH]3)cc(OCc3nnn[nH]3)c2c2c1C(c1ccccc1)CCC2 (centres unmarked) [Example 2c, 7,8,9,10-Tetrahydro-1,3-bis[(1H -tetrazol-5-yl)methoxy]-7-phenyl-6H-dibenzo[b,d]pyran-6-one]
[1]; [6]
  activation at 100 µM: -1%

## Cc1c(Cc2ccccc2)c(=O)n(Cc2ccccc2)c2cc(OCc3nnn[nH]3)cc(OCc3nnn[nH]3)c12 [Example 8g, 5,7-Bis[(1H-tetrazol-5-yl)methoxy]-1,3-dibenzyl-4-methyl-2(1H)-quinolinone]
[1]; 0.1-10 μM
  Effect on the calcium uptake into the SR vesicle prepared from the fast skeletal muscle: did not change the calcium uptake
[1]; 0.05 h, compound 10 μM, 0.04 μM free calcium, read-out: The stimulation (%) of Ca2+ uptake, B (fast skeletal muscle vesicles)
  activation at 10 µM: 0%
[2]; 0.1, 1.0 and 10 μM, FIG. 1
  Effect on the Ca2+ uptake rate into the cardiac muscle SR vesicles: accelerated the calcium uptake
[3]
  Development of stunned myocardium (left ventricular systolic pressure): complete inhibition of the development of stunned myocardium; also recorded: completely inhibited the development of stunned myocardium

## Cc1c(Cc2ccccc2)c(=O)oc2cc(OCc3nnn[nH]3)cc(OCc3nnn[nH]3)c12 [Example 1c, 3-Benzyl-5,7-bis[(1H -tetrazol-5-yl)methoxy]-4-methyl-2H -1-benzopyran-2-one]
[4]; 50 μM each, water, room temperature
  Change in CD spectrum (α-helical contribution) of PLB[1-36 a.a.] after addition of compound: marked increase of α-helical contribution
[4]; unphosphorylated peptide
  Interaction (complex formation) with PLB[1-36 a.a.] by CD: forms a complex with PLB; also recorded: interacts with the cytosolic part of phospholamban
[1]; [6]
  activation at 100 µM: -6%
[5]
  Interaction with phosphorylated PLB[1-36 a.a.](Ser16PO3-, Thr17PO3-) by CD: does not interact or interacts weakly
[2]; [7]
  activation at 100 µM: 42%

Source: patent publication US5968959A, “Method for the prevention and treatment of stunned myocardium” (Orion Corporation, priority 1998, dated 1999)
